From ChEMBL document CHEMBL1150095, “Antitumor activity and stereochemistry of acetylenic alcohols from the sponge Cribrochalina vasculum” (1995)
Activity calls are given as the source filed them. The calls are words filed in the database; no cut-off is given here.

What was measured:
[1] = test system: NCI-H522; test: Antitumor activity against human NCI-H522 cells; format: functional
[2] = test system: IGROV-1; test: Antitumor activity against human IGROV1 cells; format: functional

C#C[C@@H](O)/C=C/CCCCCCCCCCCCCC(C)C was tested, and the Activity [1] was “Active” and the Activity [2] was “Active”.
